The target in assay [1] is human TYK2 (JH2domain-pseudokinase) (Homo sapiens (Human), UniProt P29597). As to the kind of experiment: TYK2 JH2 Domain Binding Assay (KINOMEscan). The note with it: 11-point 3-fold dilution, top concentration 30,000 nM, duplicate. The protocol:
Binding constants for compounds of the present invention against the JH2 domain were determined by the following protocol for a KINOMEscan® assay (DiscoveRx). A fusion protein of a partial length construct of human TYK2 (JH2domain-pseudokinase) (amino acids G556 to D888 based on reference sequence NP_003322.3) and the DNA binding domain of NFkB was expressed in transiently transfected HEK293 cells. From these HEK 293 cells, extracts were prepared in M-PER extraction buffer (Pierce) in the presence of Protease Inhibitor Cocktail Complete (Roche) and Phosphatase Inhibitor Cocktail Set II (Merck) per manufacturers' instructions. The TYK2(JH2domain-pseudokinase) fusion protein was labeled with a chimeric double-stranded DNA tag containing the NFkB binding site (5′-GGGAATTCCC-3′) fused to an amplicon for qPCR readout, which was added directly to the expression extract (the final concentration of DNA-tag in the binding reaction is 0.1 nM).
Streptavidin-coated magnetic beads (Dynal M280) were treated with a biotinylated small molecule ligand for 30 minutes at room temperature to generate affinity resins for the binding assays. The liganded beads were blocked with excess biotin and washed with blocking buffer (SeaBlock (Pierce), 1% BSA, 0.05% Tween 20, 1 mM DTT) to remove unbound ligand and to reduce nonspecific binding.
The binding reaction was assembled by combining 16 μl of DNA-tagged kinase extract, 3.8 μl liganded affinity beads, and 0.18 μl test compound (PBS/0.05% Tween 20/10 mM DTT/0.1% BSA/2 μg/ml sonicated salmon sperm DNA). Extracts were used directly in binding assays without any enzyme purification steps at a ≥10,000-fold overall stock dilution (final DNA-tagged enzyme concentration <0.1 nM). Extracts were loaded with DNA-tag and diluted into the binding reaction in a two step process. First extracts were diluted 1:100 in 1× binding buffer (PBS/0.05% Tween 20/10 mM DTT/0.1% BSA/2 μg/ml sonicated salmon sperm DNA) containing 10 nM DNA-tag. This dilution was allowed to equilibrate at room temperature for 15 minutes and then subsequently diluted 1:100 in 1× binding buffer. All reactions were performed in polypropylene 384-well plates. Each was a final volume of 0.02 mL. Assays were incubated with shaking for 1 hour at room temperature. Then the beads were pelleted and washed with wash buffer (1×PBS, 0.05% Tween 20) to remove displaced kinase and test compound. The washed based were re-suspended in elution buffer (1×PBS, 0.05% Tween 20, 0.5 μM non-biotinylated affinity ligand) and incubated at room temperature with shaking for 30 minutes. The kinase concentration in the eluates was measured by qPCR. qPCR reactions were assembled by adding 2.5 μL of kinase eluate to 7.5 μL of qPCR master mix containing 0.15 μM amplicon primers and 0.15 μM amplicon probe. The qPCR protocol consisted of a 10 minute hot start at 95° C., followed by 35 cycles of 95° C. for 15 seconds, 60° C. for 1 minute.
Test compounds were prepared as 111× stocks in 100% DMSO. Kd values were determined using an 11-point 3-fold compound dilution series with three DMSO control points. All compounds for Kd measurements are distributed by acoustic transfer (non-contact dispensing) in 100% DMSO. The compounds were then diluted directly into the assays such that the final concentration of DMSO was 0.9%. The Kd values were determined using a compound top concentration of 30,000 nM. Kd measurements were performed in duplicate.
Binding constants (Kds) were calculated with a standard dose-response curve using the Hill equation: […]
The Hill Slope was set to −1. Curves were fitted using a non-linear least square fit with the Levenberg-Marquardt algorithm (Levenberg, K., A method for the solution of certain non-linear problems in least squares, Q. Appl. Math. 2, 164-168 (1944)).

A further assay deals with TYK2 kinase domain (JH1) (Homo sapiens (Human), UniProt P29597). Description: TYK2 Radioactive Kinase Assay. The assay is classed as biochemical. The note with it: compound at 10 μM; ATP at 10 μM; 120 min at room temp. The protocol: (§1) Peptide substrate, [KKSRGDYMTMQIG], (20 μM) was prepared in reaction buffer (20 mM Hepes pH 7.5, 10 mM MgCl2, 1 mM EGTA, 0.02% Brij35, 0.02 mg/mL BSA, 0.1 mM […], 2 mM DTT, 1% DMSO). TYK2 (Invitrogen) kinase was added, followed by compounds in DMSO. ^33PATP was added to initiate the reaction in ATP at 10 μM. The kinase reaction was incubated for 120 min at room temp and reactions were spotted onto P81 ion exchange paper (Whatman #3698-915), and then washed extensively in 0.75% phosphoric acid, prior to reading the radioactivity counts. For JAK2 (Invitrogen) kinase assay the peptide substrate poly[Glu:Tyr](4:1), 0.2 mg/ml was used, in the reaction carried out the same as for TYK2.
(§2) The TYK2 and JAK2 radioactive kinase assay measures the percent inhibition at the TYK2 kinase domain (JH1) and the percent inhibition at the JAK2 kinase domain (JH1). Results of the assay are expressed as percent inhibition at 10 μM.

For another assay, the target named is JAK2 kinase domain (JH1) (Homo sapiens (Human), UniProt O60674). Description: JAK2 Radioactive Kinase Assay. The note with it: compound at 10 μM; ATP at 10 μM; substrate poly[Glu:Tyr](4:1). The assay is classed as biochemical. The protocol:
as §1, §2

Consider 18 molecules from patent US11053241B2, “TYK2 inhibitors and uses thereof” (Nimbus Lakshmi, Inc., priority 2018, dated 2021).

Sequence of human TYK2 (JH2domain-pseudokinase) (P29597 556-888): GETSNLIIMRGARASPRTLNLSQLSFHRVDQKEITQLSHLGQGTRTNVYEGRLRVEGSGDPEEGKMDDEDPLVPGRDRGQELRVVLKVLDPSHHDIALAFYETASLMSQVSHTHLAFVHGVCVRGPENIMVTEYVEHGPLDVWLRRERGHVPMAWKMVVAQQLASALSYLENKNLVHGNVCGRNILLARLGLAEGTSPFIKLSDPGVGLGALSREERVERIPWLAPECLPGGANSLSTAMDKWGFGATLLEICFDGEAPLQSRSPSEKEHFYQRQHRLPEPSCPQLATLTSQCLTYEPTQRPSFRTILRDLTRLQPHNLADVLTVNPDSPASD
Sequence of TYK2 kinase domain (JH1) (P29597 897-1176): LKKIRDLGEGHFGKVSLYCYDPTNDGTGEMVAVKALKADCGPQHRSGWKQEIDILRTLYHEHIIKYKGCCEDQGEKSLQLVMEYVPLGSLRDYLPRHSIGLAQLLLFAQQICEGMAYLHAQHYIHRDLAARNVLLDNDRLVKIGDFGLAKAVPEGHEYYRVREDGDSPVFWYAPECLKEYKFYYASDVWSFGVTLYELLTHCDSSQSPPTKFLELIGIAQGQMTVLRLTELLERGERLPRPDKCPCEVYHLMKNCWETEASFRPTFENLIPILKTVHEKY
Sequence of JAK2 kinase domain (JH1) (O60674 849-1124): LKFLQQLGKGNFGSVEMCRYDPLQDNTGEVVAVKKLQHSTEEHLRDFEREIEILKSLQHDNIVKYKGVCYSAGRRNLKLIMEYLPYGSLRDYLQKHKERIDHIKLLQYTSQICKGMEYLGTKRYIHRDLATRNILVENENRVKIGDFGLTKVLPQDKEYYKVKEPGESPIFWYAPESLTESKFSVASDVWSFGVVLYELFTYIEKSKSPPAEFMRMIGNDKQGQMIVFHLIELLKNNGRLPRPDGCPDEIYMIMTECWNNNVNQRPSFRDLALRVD

Broadly, the Kd is a measure of binding affinity in units of concentration. Lower therefore signals higher affinity. A word on the inhibition: it is the percentage by which the read-out fell short of the control. Consider `[2H]C([2H])([2H])NC(=O)c1cnc(NC(=O)C2CC2)c2[nH]c(-c3cccc(-c4ncn(C)n4)n3)cc12` [Compound I-35, 7-(cyclopropanecarboxamido)-N-(methyl-d3)-2-(6-(1-methyl-1H-1,2,4-triazol-3-yl)pyridin-2-yl)-1H-pyrrolo[2,3-c]pyridine-4-carboxamide], for which the dissociation constant (Kd) in assay [1] was 0.2 to 1 nM. The inhibition at 10 µM on TYK2 kinase domain (JH1) and on JAK2 kinase domain (JH1) was below 50% throughout.

Take `CNC(=O)c1cnc(NC(=O)C2CC2)c2[nH]c(-c3ccc(C(=O)N4CCCC4)cc3OC)cc12` [Compound I-25, 7-(cyclopropanecarboxamido)-2-(2-methoxy-4-(pyrrolidine-1-carbonyl)phenyl)-N-methyl-1H-pyrrolo[2,3-c]pyridine-4-carboxamide]: the Kd in assay [1] is below 0.2 nM. The inhibition at 10 µM on TYK2 kinase domain (JH1) and on JAK2 kinase domain (JH1) was below 50% in each case.

In assay [1], `CNC(=O)c1cnc(NC(=O)C2CC2)c2[nH]c(-c3ccc(N4CCCC4=O)cc3OC)cc12` [Compound I-26, 7-(cyclopropanecarboxamido)-2-(2-methoxy-4-(2-oxopyrrolidin-1-yl)phenyl)-N-methyl-1H-pyrrolo[2,3-c]pyridine-4-carboxamide] yielded a Kd below 0.2 nM. Also, the inhibition at 10 µM on TYK2 kinase domain (JH1) and at JAK2 kinase domain (JH1) was below 50% in each case.

In assay [1], `CNC(=O)CCCNc1ccc(-c2cc3c(C(=O)NC)cnc(NC(=O)C4CC4)c3[nH]2)c(OC)c1` [Compound I-30, 7-(cyclopropanecarboxamido)-2-(2-methoxy-4-((4-(methylamino)-4-oxobutyl)amino)phenyl)-N-methyl-1H-pyrrolo[2,3-c]pyridine-4-carboxamide] came in with a dissociation constant (Kd) below 0.2 nM. Besides, the inhibition at 10 µM on TYK2 kinase domain (JH1) and at JAK2 kinase domain (JH1) was below 50% in each case.

`CNC(=O)c1cnc(NC(=O)C2CC2)c2[nH]c(-c3cc(-c4ncco4)ccn3)cc12` [Compound I-15, 7-(cyclopropanecarboxamido)-N-methyl-2-(4-(oxazol-2-yl)pyridin-2-yl)-1H-pyrrolo[2,3-c]pyridine-4-carboxamide] displayed a Kd in assay [1] of 0.2 to 1 nM. For the same molecule, the inhibition at 10 µM at TYK2 kinase domain (JH1) and at JAK2 kinase domain (JH1) was below 50% throughout.

In turn, `CCn1cc(-c2cc3c(C(=O)NC)cnc(NC(=O)C4CC4)c3[nH]2)ccc1=O` [Compound I-31, 7-(cyclopropanecarboxamido)-2-(1-ethyl-6-oxo-1,6-dihydropyridin-3-yl)-N-methyl-1H-pyrrolo[2,3-c]pyridine-4-carboxamide] registered a dissociation constant Kd in assay [1] of 1 to 10 nM. Further, the inhibition at 10 µM on TYK2 kinase domain (JH1) and at JAK2 kinase domain (JH1) was below 50% in each case.

In assay [1], `CNC(=O)c1cnc(NC(=O)C2CC2)c2[nH]c(-c3ccc(-n4ncnc4C)cc3F)cc12` [Compound I-65, 7-(cyclopropanecarboxamido)-2-(2-fluoro-4-(5-methyl-1H-1,2,4-triazol-1-yl)phenyl)-N-methyl-1H-pyrrolo[2,3-c]pyridine-4-carboxamide] showed a dissociation constant Kd below 0.2 nM.

Take `CNC(=O)c1cnc(NC(=O)C2CC2)c2[nH]c(-c3ccc(-c4nc(C)c(C)n4C)cc3F)cc12` [Compound I-74, 7-(cyclopropanecarboxamido)-2-(2-fluoro-4-(1,4,5-trimethyl-1H-imidazol-2-yl)phenyl)-N-methyl-1H-pyrrolo[2,3-c]pyridine-4-carboxamide]: the dissociation constant (Kd) in assay [1] was below 0.2 nM.

Regarding `CNC(=O)c1cnc(NC(=O)C2CC2)c2[nH]c(-c3c(F)cc(-c4nccn4C)cc3N3CC[C@@H](OC)C3)cc12` [Compound I-90, (R)-7-(cyclopropanecarboxamido)-2-(2-fluoro-6-(3-methoxypyrrolidin-1-yl)-4-(1-methyl-1H-imidazol-2-yl)phenyl)-N-methyl-1H-pyrrolo[2,3-c]pyridine-4-carboxamide], the dissociation constant (Kd) in assay [1] was below 0.2 nM.

As to `CNC(=O)c1cnc(NC(=O)C2CC2)c2[nH]c(-c3cccc(-c4cnc(C)o4)c3F)cc12` [Compound I-81, 7-(cyclopropanecarboxamido)-2-(2-fluoro-3-(2-methyloxazol-5-yl)phenyl)-N-methyl-1H-pyrrolo[2,3-c]pyridine-4-carboxamide], the Kd in assay [1] was below 0.2 nM.

Molecule `CCc1csc(-c2cc3c(C(=O)NC)cnc(NC(=O)C4CC4)c3[nH]2)n1` [Compound I-70, 7-(cyclopropanecarboxamido)-2-(4-ethylthiazol-2-yl)-N-methyl-1H-pyrrolo[2,3-c]pyridine-4-carboxamide] yielded a Kd in assay [1] of 0.2 to 1 nM.

Consider `CNC(=O)c1cnc(NC(=O)C2CC2)c2[nH]c(-c3cccn(C4CCCOC4)c3=O)cc12` (stereo in doubt) [Compound I-55, (S)-7-(cyclopropanecarboxamido)-N-methyl-2-(2-oxo-1-(tetrahydro-2H-pyran-3-yl)-1,2-dihydropyridin-3-yl)-1H-pyrrolo[2,3-c]pyridine-4-carboxamide], for which the Kd in assay [1] lay in the range of 0.2 to 1 nM.

On to `CNC(=O)c1cnc(NC(=O)C2CC2)c2[nH]c(-c3cccc(-c4cn5c(n4)OCCC5)c3F)cc12` [Compound I-76, 7-(cyclopropanecarboxamido)-2-(3-(6,7-dihydro-5H-imidazo[2,1-b][1,3]oxazin-2-yl)-2-fluorophenyl)-N-methyl-1H-pyrrolo[2,3-c]pyridine-4-carboxamide], for which the dissociation constant Kd in assay [1] is below 0.2 nM.

Consider `CNC(=O)c1cnc(NC(=O)C2CC2)c2[nH]c(-c3cccc(-n4nccn4)c3F)cc12` [Compound I-63, 7-(cyclopropanecarboxamido)-2-(2-fluoro-3-(2H-1,2,3-triazol-2-yl)phenyl)-N-methyl-1H-pyrrolo[2,3-c]pyridine-4-carboxamide], for which the dissociation constant (Kd) in assay [1] lay in the range of 0.2 to 1 nM.

As for `CNC(=O)c1cnc(NC(=O)C2CC2)c2[nH]c(-c3cccc(-c4cn5c(n4)COCC5)c3F)cc12` [Compound I-79, 7-(cyclopropanecarboxamido)-2-(3-(5,6-dihydro-8H-imidazo[2,1-c][1,4]oxazin-2-yl)-2-fluorophenyl)-N-methyl-1H-pyrrolo[2,3-c]pyridine-4-carboxamide], in assay [1], the Kd is below 0.2 nM.

In turn, `CNC(=O)c1cnc(NC(=O)C2CC2)c2[nH]c(-c3cccc(-c4nc(C)n(C)n4)c3F)cc12` [Compound I-73, 7-(cyclopropanecarboxamido)-2-(3-(1,5-dimethyl-1H-1,2,4-triazol-3-yl)-2-fluorophenyl)-N-methyl-1H-pyrrolo[2,3-c]pyridine-4-carboxamide] had an equilibrium dissociation constant (Kd) in assay [1] below 0.2 nM.

In assay [1], `CNC(=O)c1cnc(NC(=O)C2CC2)c2[nH]c(-c3ccc(-c4ncc5n4CCCC5)cc3F)cc12` [Compound I-75, 7-(cyclopropanecarboxamido)-2-(2-fluoro-4-(5,6,7,8-tetrahydroimidazo[1,5-a]pyridin-3-yl)phenyl)-N-methyl-1H-pyrrolo[2,3-c]pyridine-4-carboxamide] returned a dissociation constant Kd below 0.2 nM.

`CNC(=O)c1cnc(NC(=O)C2CC2)c2[nH]c(-c3ccc(OC)cc3[C@@H]3COCCO3)cc12` [Compound I-72] came in with a dissociation constant (Kd) in assay [1] above 10 nM.
